Experimental findings from patent US20190255175A1, “ACTIVATION OF TRPA1+ NOCICEPTORS IN THE VAGUS NERVE ATTENUATES SYSTEMIC INFLAMMATION” (THE FEINSTEIN INSTITUTE FOR MEDICAL RESEARCH, priority 2018, published 2019) are described below.

Test [1] deals with sensory nodose ganglion neurons. Briefly: Calcium influx (fluorescence) in sensory nodose ganglion neurons from VGlut2-GCaMP3 mice. The format is cell-based. Particulars: IL-1β 20 μg/ml; 6 out of 332 neurons. The procedure:
Using patch clamp recordings, IL-1β responses were recorded in nodose ganglion neurons. Application of IL-1β (20 μg/ml) induced calcium influx as indicated by increase of fluorescence in 6 out of 332 (1.8%) sensory nodose ganglion neurons from VGlut2-GCaMP3 mice. Next, whole-cell patch clamp recordings were carried out on the same neurons that responded to IL-1β in calcium influx analysis. When the membrane potential was held at −65 mV, bath application of IL-1β (20 μg/ml) produced slow inward currents in 4 out of 332 (1.2%) nodose neurons. The amplitude of IL-1β induced currents are 108±23 pA (n=4). […] In current-clamp mode, IL-1β reduced action potential threshold from −25±2 mV to −31±3 mV (n=4). […] To further determine the potential interaction of TRPA1 with IL-1β, nodose ganglion neurons from TRPA1 KO mice were examined in a culture system. […] IL1R1 co-localizes with TRPA1 on nodose ganglion neurons, as was determined using immunohistochemical staining.

The subject of test [2] is vagus nerve. In words: Cervical vagus nerve electrophysiological recording after IL-1β challenge. The format is in vivo, mice. The procedure: FIG. 3. TRPA1 is required for IL-1β induced vagus nerve signaling. Vagus nerve firing rate in 60s-Bins (mean±SEM) starting 5 min prior to IL-1β injection (350 ng/kg) indicated by arrow followed by 5 min post injection time.
Mice were induced with general anesthesia using isoflurane at 2.5% in 100% oxygen at a flow rate of 1 L/min. Once anesthetized, the mouse was moved to a supine position with the isoflurane maintained at 2.0% during surgery. The nerve was then isolated as described in previous publications^10,11,17. The core body temperature was monitored with a rectal probe and maintained around 37° C. with a heating pad and heat lamp. Prior to recording and nerve placement within the cuff, the electrode was submerged briefly in saline solution.
The electrophysiological signals were digitized from the vagus nerve using a Plexon data acquisition system (Omniplex, Plexon Inc., Dallas, Tex.). Recordings were sampled at 40 kHz with a 120 Hz filter and 50 gain. All signals were recorded from a bipolar cuff electrode referenced to the animal ground placed between the right salivary gland and the skin. In experiments with IL-1β challenge, following acquisition of the baseline activity (10 min), 350 ng/kg recombinant human IL-1β (eBioscience, San Diego, Calif.) was administered intraperitoneally; recordings were then continued for 10 min post-injection.
Analysis of raw recordings was done on Spike2 software (version 7, CED). Raw recordings were filtered (using a high pass filter) and smoothed. To identify neural signals, a user-specific adaptive threshold was employed. All signals were identified as neuronal or non-neuronal. Non-neuronal signals, which consisted mainly of cardiac and respiratory components, were manually removed. All recordings with no identifiable neuronal spikes were removed from analyses.
To recognize how knocking out TRPA1 further effects inflammatory signaling, TRPA1 KO and WT mice were injected with either saline or IL-1β ([…]).
To further determine fiber specificity, a TRPV1 cell depletion model was employed by breeding TRPV1-Cre mice with ROSA-DTA mice. […] To identify if TRPV1 itself is necessary for propagation of the signal, recordings were done in a genetic TRPV1 knockout (TRPV1 KO) mouse. […] To determine a molecular target on TRPV1+ neurons mediating afferent IL-1β signaling, the cation channel TRPA1 was identified. TRPA1 is found on a subset of TRPV1+ neurons; approximately 30%. However, TRPA1 co-localized with TRPV1 on 97% of TRPA1+ neurons^26.

Test [3] can be described thus: IL-1β induced inflammation: serum and spleen cytokines. Type of test: in vivo. The note with it: TRPA1 KO mice; after IL-1β administration; 3 hours. The procedure: Mice were injected with 3.2 μg/kg IL-1β ip or saline. Three hours later the mice were euthanized, and blood, spleen, and two brain regions collected. Blood was collected by cardiac puncture. To obtain serum from these samples, blood was allowed to clot for approximately 45 min to 1 h. The blood was then spun at 5,000 rpm for 10 min and 10,000 For 2 min. Supernatants (serum) were collected and stored at −20° C. prior to use. The spleen was homogenized using a bullet blender homogenizer (Next Advance, Averill Park, N.Y., USA) and the recommended bead homogenization kit and protocol in a 4° C. walk-in refrigerator. The homogenized sample was then spun down at 15,000 rpm for 10 min with the supernatants collected and stored at −20° C. Splenic protein level was measured using the Bradford assay. IL-6, IL-1β, KC/Gro (CXCL1), and IL-1β for both serum and spleen were measured on a custom mouse inflammatory electrochemiluminescent kit (Meso Scale Discovery, Gaithersburg, Md., USA) according to manufacturer's recommendations. The brain stem region was collected on ice, using a binocular dissection microscope and placed in the same tube. Brain regions were snap frozen on dry ice and transferred to storage at −80° C.
The serum and splenic tissue of these mice were then analyzed for known downstream signaling molecules of IL-1β, IL-6, IL-1β and KC/GRO (CXCL1).

Take “IL-1β: interleukin 1β; recombinant human IL-1β for nerve recordings, murine (rmIL-1β) for thermoregulation”: the “Neurons showing calcium influx (increase of fluorescence)” value in test [1] is recorded as 1.8%. The Vagus nerve activation entry in test [2] (TRPA1 KO mice) is recorded as “fails to induce activation of the vagus nerve”; in test [2] (wild type mice), “induces activation of the vagus nerve”. Moreover, the Vagus nerve activity entry in test [2] (TRPV1 KO mice) is “significant increase”; in test [2] (TRPV1 cell depletion model (TRPV1-Cre x ROSA-DTA mice)), “No significant enhancement of vagus nerve activity”. For the same substance, the “IL-6, IL-1β and KC/GRO (CXCL1) in serum and spleen” value in test [3] was “further increases”.
